Data from BindingDB's records for patent US20250163072 (Hoffmann-La Roche, 2025).

Each compound was assayed against GTPase KRas [G12C]/Serine/threonine-protein kinase B-raf (Human, UniProt P01116+P15056, G12C) (assay: KRAS G12C-BRAF NanoBit Assay).
GTPase KRas [G12C]/Serine/threonine-protein kinase B-raf, sequence (P01116 whole entry G12C): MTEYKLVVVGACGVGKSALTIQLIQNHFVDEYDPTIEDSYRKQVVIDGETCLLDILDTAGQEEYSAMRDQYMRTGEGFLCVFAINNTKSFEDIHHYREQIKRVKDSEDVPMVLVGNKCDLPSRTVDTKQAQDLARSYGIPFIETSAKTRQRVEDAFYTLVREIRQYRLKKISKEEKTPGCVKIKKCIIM
GTPase KRas [G12C]/Serine/threonine-protein kinase B-raf, sequence (P15056 2-766 limits assumed): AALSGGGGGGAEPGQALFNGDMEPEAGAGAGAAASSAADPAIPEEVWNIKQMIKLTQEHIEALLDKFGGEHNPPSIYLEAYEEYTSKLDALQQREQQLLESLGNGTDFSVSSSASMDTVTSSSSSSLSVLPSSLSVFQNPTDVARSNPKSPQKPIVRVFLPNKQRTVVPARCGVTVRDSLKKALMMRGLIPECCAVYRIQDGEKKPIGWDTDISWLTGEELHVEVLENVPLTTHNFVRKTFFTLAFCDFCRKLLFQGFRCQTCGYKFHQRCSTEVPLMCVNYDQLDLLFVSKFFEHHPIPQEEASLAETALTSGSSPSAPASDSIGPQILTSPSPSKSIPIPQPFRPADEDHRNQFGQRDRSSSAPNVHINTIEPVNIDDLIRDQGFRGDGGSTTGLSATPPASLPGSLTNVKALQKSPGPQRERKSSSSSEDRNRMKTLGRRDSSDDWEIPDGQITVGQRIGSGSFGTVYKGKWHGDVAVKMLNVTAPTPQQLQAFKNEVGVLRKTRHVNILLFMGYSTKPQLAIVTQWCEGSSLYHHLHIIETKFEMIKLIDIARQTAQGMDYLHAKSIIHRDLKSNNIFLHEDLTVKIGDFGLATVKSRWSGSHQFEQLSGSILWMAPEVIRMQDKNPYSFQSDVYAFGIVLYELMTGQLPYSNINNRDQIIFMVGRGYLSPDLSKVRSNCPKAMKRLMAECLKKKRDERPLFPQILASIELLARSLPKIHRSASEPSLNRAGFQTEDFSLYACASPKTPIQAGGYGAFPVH
Method: HEK293 cells were grown and maintained using DMEM medium (Thermo Fisher Scientific) with 10% fetal bovine serum and 1% penicillin/streptomycin. Both KRAS G12C and BRAF RBD were cloned into the NanoBit vectors ([…] vectors system, Promega) with the orientations SmBit-KRAS G12C and BRAF RBD-LgBit, respectively, and co-transfected into HEK293 cells. Cells were then selected with 100 μg/mL Hygromycin B (10687010, Thermo Fisher) and Blasticidin (5 μg/mL) for 4 weeks to get the stable cell pool. On the day of the assay, 75 nL of compound solution was presented in a 384-well assay plate as a 16-point 3-fold dilution starting from a final concentration of 30 μM in DMSO. Then cells were seeded at 10,000 cells/25 μL/well in a 384-well plate. After 3 hours of incubation, 6 μL of volume of Nano-Glo Live Cell Substrate (Promega) was added into each well. Monitor luminescence using ultra384 model in Envision at 20 minutes. Compounds that facilitate disruption of the KRAS G12C-BRAF RBD complex were identified as those eliciting a decrease of luminescence relative to DMSO control wells.
For `CCn1c(-c2cccnc2[C@H](C)OC)c2c3cc(ccc31)-c1cc(O)cc(c1)C[C@H](NC(=O)[C@H](C(C)C)N(C)C(=O)C1CN(C(=O)CCl)C1)C(=O)N1CCC[C@H](N1)C(=O)OCC(C)(C)C2` [US20250163072, Example RM461], the IC50 was 440 nM.
For `CC(C)[C@@H](C(=O)N[C@H]1Cc2cc(O)cc(c2)-c2ccc3c(C(C)(C)C#N)cn(c3c2)CC(C)(C)COC(=O)[C@@H]2CCCN(N2)C1=O)N1CCCC2(CCN(C(=O)CCl)C2)C1=O` (stereo partly drawn) [US20250163072, Example RM351], the IC50 was 1780 nM.
Work on `CCn1c(-c2cccnc2[C@H](C)OC)c2c3cc(ccc31)-c1cc(O)cc(c1)C[C@H](NC(=O)[C@H](C(C)C)N(C)C(=O)C1CCN(C(=O)C#CCN3CCOCC3)C1)C(=O)N1CCC[C@H](N1)C(=O)OCC(C)(C)C2` (stereo partly drawn) [US20250163072, Example RM018] yielded an IC50 of 268 nM.
